Data from US20200339544A1 (JOINT STOCK COMPANY "BIOCAD", priority 2017, published 2020).
Where two headings read alike, the source gives them in different places. Marks after values point to notes of the source that are not given here.

How the values were obtained:
[1] = Permeability through monolayer of Caco-2 cells; format: in vitro ADME; details: human, Caco-2 monolayer; for Papp A→B at 2 h, 10 µM: pH 6.5 upper / pH 7.4 lower, 2 h at 37° C.; for efflux ratio at 2 h, 10 µM: Papp B-A/Papp A-B
Description: 2) Assessment of permeability through monolayer of Caco-2 cells.
Assessment of permeability through the monolayer of Caco-2 cells allows to evaluate the ability of the candidate compounds to penetrate through biological membranes by active and passive transport.
Caco-2, the cells of the intestinal epithelium, had been cultured in transwell plate inserts with the filters (with pores of 0.4 μm, BD Falcon with High Density) for 21 days, and then the integrity of the monolayer were estimated with Lucifer Yellow (Sigma-Aldrich, USA) by standard protocol. When setting the A→B transfer (“intestinal lumen”—“blood stream” transfer), solutions of test substances were added in a buffer with pH 6.5 (HBSS, 10 mM HEPES, 15 mM glucose solution) with the concentration of 10 μM into the upper chamber; the lower chamber was filled with a buffer with pH 7.4 (HBSS, 10 mM HEPES, 15 mM Glucose, 1% BSA). When setting B→A transfer (“blood stream”—“intestinal lumen” transfer), the upper chamber was filled with the buffer with pH 6.5, and solutions of the test substances were added in the buffer with pH 7.4 at the concentration of 10 μM in the lower chamber. Propranolol was used as a control substance (as it has high permeability).
After incubating for 2 h at 37° C. under 5% CO2, the amounts of test substances were determined in the upper and lower chambers by HPLC using Agilent1200 chromatograph (Agilent, USA) with preliminary protein precipitation with acetonitrile. We used gradient elution (1 mL/min flow rate). We determined the areas of peaks corresponding to the compounds. On the basis of peak areas in the calibration standards we determined the concentration of compound in the initial solution and in the samples from the wells of the upper and lower chambers. Papp, permeability through the cell layer, was calculated using the following formula:
Papp=(C(t)*V)/(C(0)*t*Area), wherein
The value was calculated with the following formula:
efflux=Papp B-A/Papp A-B, wherein • Papp A-B—the volume of permeability in A→B test; • Papp B-A—he volume of permeability in B→A test.

[2] = system: H1975 (lung adenocarcinoma, DM, L828R/T790M); test: Antiproliferative activity on H1975 cells (Alamar Blue); format: cell-based; details: for IC50: Homo sapiens, NCI-H1975, H1975 cells; for SI IC50(A549)/IC50(DM): selectivity index, A549 vs H1975 cells
Summary of the method: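 H1975 cells (15*10^3/well) attached 16-18 h in RPMI-1640 with 2% FBS, then exposed to compounds (≤1% DMSO final) for 72 h at 37 °C. Viability by Alamar Blue fluorescence (Ex 540/Em 590 nm) after 3-5 h; IC50 from four-parameter logistic fit.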

[3] = Chemical stability in simulated intestinal fluid (SIF); format: physicochemical; details: SIF without enzymes, pH 6.5; 10 μm; 2 hours at 37° C.; substance amount remaining
Summary of the method: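 Compound at 10 μm (diluted from 10 mM DMSO stock) incubated 2 h at 37° C in enzyme-free SGF, pH=1,4, or enzyme-free SIF, pH=6.5. HPLC peak areas before and after incubation give % compound remaining.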

[4] = average values obtained in several tests, Table 16, read-out: H1975 (DM) IC50
[5] = antiproliferative test, Table 15, read-out: IC50 H1975 (DM)

## C=CC(=O)Nc1cc(Nc2cc(C(=O)c3ccc(OCCC)cc3)ccn2)c(OC)cc1N(C)CCN(C)C [EGFR_3365_50, N-(2-((2-(dimethylamino)ethyl)(methyl)amino)-4-methoxy-5-((4-(4-propoxybenzoyl)pyridin-2-yl)amino)phenyl)acrylamide]
[1]
  Papp A→B at 2 h, 10 µM: 2 ×10⁻⁶ cm/s
  efflux ratio at 2 h, 10 µM: 0.3
[2]; [4]
  IC50: 47.5 nM
[2]; [5]
  IC50: 47.5 nM
[2]
  SI IC50(A549)/IC50(DM): 104
[3]
  Stability in SIF, %: 98.5%

## C=CC(=O)Nc1cc(Nc2nccc(C(=O)c3ccc(N(C)C)cc3)n2)c(OC)cc1N(C)CCN(C)C [EGFR_3365_73, N-(5-((4-(4-(dimethylamino)benzoyl)pyrimidin-2-yl)amino)-2-((2-(dimethylamino)ethyl) (methyl)amino)-4-methoxyphenyl)acrylamide]
[1]
  Papp A→B at 2 h, 10 µM: 5.1 ×10⁻⁶ cm/s
  efflux ratio at 2 h, 10 µM: 1.6
[2]; [4]
  IC50: 9.5 nM
[2]; [5]
  IC50: 10.3 nM
[2]
  SI IC50(A549)/IC50(DM): 1678
[3]
  Stability in SIF, %: 100.0%

## C=CC(=O)Nc1cc(Nc2nccc(C(=O)c3ccc(N4CCC4)cc3)n2)c(OC)cc1N(C)CCN(C)C [EGFR_3365_58, N-(5-((4-(4-(azetidin-1-yl)benzoyl)pyrimidin-2-yl)amino)-2-((2-(dimethylamino)ethyl)(methyl)amino)-4-methoxyphenyl)acrylamide]
[1]
  Papp A→B at 2 h, 10 µM: 5.8 ×10⁻⁶ cm/s
  efflux ratio at 2 h, 10 µM: 1.1
[2]; [4]
  IC50: 8.1 nM
[2]; [5]
  IC50: 10.5 nM
[2]
  SI IC50(A549)/IC50(DM): >1235
[3]
  Stability in SIF, %: 100.0%

## C=CC(=O)Nc1cc(Nc2nccc(C(=O)c3ccc(OC)cc3)n2)c(OC)cc1N(C)CCN(C)C [EGFR_3365_28, N-(2-((2-(dimethylamino)ethyl)(methyl)amino)-4-methoxy-5-((4-(4-methoxybenzoyl)pyrimidin-2-yl)amino)phenyl)acrylamide]
[1]
  Papp A→B at 2 h, 10 µM: 3.84 ×10⁻⁶ cm/s
  efflux ratio at 2 h, 10 µM: 1.87
[2]; [4]
  IC50: 17.1 nM
[2]; [5]
  IC50: 17.1 nM
[2]
  SI IC50(A549)/IC50(DM): 213.04
[3]
  Stability in SIF, %: 100.0%

## C=CC(=O)Nc1cc(Nc2cc(C(=O)c3ccc(OC)cc3)ccn2)c(OC)cc1N(C)CCN(C)C [EGFR_3365_51, N-(2-((2-(dimethylamino)ethyl)(methyl)amino)-4-methoxy-5-((4-(4-methoxybenzoyl)pyridin-2-yl)amino)phenyl)acrylamide]
[1]
  Papp A→B at 2 h, 10 µM: 3.2 ×10⁻⁶ cm/s
  efflux ratio at 2 h, 10 µM: 1.7
[2]; [4]
  IC50: 33.8 nM
[2]; [5]
  IC50: 33.8 nM
[2]
  SI IC50(A549)/IC50(DM): 340
[3]
  Stability in SIF, %: 100.0%

## C=CC(=O)Nc1cc(Nc2nccc(C(=O)c3ccc(OCCCC)cc3)n2)c(OC)cc1N(C)CCN(C)C [EGFR_3365_66, N-(5-((4-(4-butoxybenzoyl)pyrimidin-2-yl)amino)-2-((2-(dimethylamino)ethyl)(methyl)amino)-4-methoxyphenyl)acrylamide]
[1]
  Papp A→B at 2 h, 10 µM: 1.3 ×10⁻⁶ cm/s
  efflux ratio at 2 h, 10 µM: 0.4
[2]; [4]
  IC50: 34.7 nM
[2]; [5]
  IC50: 34.7 nM
[2]
  SI IC50(A549)/IC50(DM): 134
[3]
  Stability in SIF, %: 96.5%

## C=CC(=O)Nc1cc(Nc2nccc(C(=O)c3ccc(OCCC)cc3OCCC)n2)c(OC)cc1N(C)CCN(C)C [EGFR_3365_70, N-(2-((2-(dimethylamino)ethyl)(methyl)amino)-5-((4-(2,4-dipropoxybenzoyl)pyrimidin-2-yl)amino)-4-methoxyphenyl)acrylamide]
[1]
  Papp A→B at 2 h, 10 µM: 2.5 ×10⁻⁶ cm/s
  efflux ratio at 2 h, 10 µM: 0.4
[2]; [4]
  IC50: 203 nM
[2]; [5]
  IC50: 203 nM
[2]
  SI IC50(A549)/IC50(DM): 22
[3]
  Stability in SIF, %: 98.6%

## C=CC(=O)Nc1cc(Nc2nccc(C(=O)c3ccc(N(CC)CC)cc3)n2)c(OC)cc1N(C)CCN(C)C [EGFR_3365_72, N-(5-((4-(4-(diethylamino)benzoyl)pyrimidin-2-yl)amino)-2-((2-(dimethylamino)ethyl)(methyl)amino)-4-methoxyphenyl)acrylamide]
[1]
  Papp A→B at 2 h, 10 µM: 3.5 ×10⁻⁶ cm/s
  efflux ratio at 2 h, 10 µM: 1.5
[2]; [4]
  IC50: 11.5 nM
[2]; [5]
  IC50: 11.5 nM
[2]
  SI IC50(A549)/IC50(DM): 932
[3]
  Stability in SIF, %: 91.5%

## C=CC(=O)Nc1cc(Nc2nccc(C(=O)c3ccc(N4CC(OC)C4)cc3)n2)c(OC)cc1N(C)CCN(C)C [EGFR_3365_61, N-(2-((2-(dimethylamino)ethyl)(methyl)amino)-4-methoxy-5-((4-(4-(3-methoxyazetidin-1-yl)benzoyl)pyrimidin-2-yl)amino)phenyl)acrylamide]
[1]
  Papp A→B at 2 h, 10 µM: 5.5 ×10⁻⁶ cm/s
  efflux ratio at 2 h, 10 µM: 1.8
[2]; [4]
  IC50: 8.1 nM
[2]; [5]
  IC50: 8.12 nM
[2]
  SI IC50(A549)/IC50(DM): 2884
[3]
  Stability in SIF, %: 98.8%

## C=CC(=O)Nc1cc(Nc2nccc(C(=O)c3ccc(OC(C)C)cc3)n2)c(OC)cc1N(C)CCN(C)C [EGFR_3365_31, N-(2-((2-(dimethylamino)ethyl)(methyl)amino)-5-((4-(4-isopropoxybenzoyl)pyrimidin-2-yl)amino)-4-methoxyphenyl) acrylamide]
[1]
  Papp A→B at 2 h, 10 µM: 3.7 ×10⁻⁶ cm/s
  efflux ratio at 2 h, 10 µM: 1.1
[2]; [4]
  IC50: 7.34 nM
[2]; [5]
  IC50: 7.3 nM
[2]
  SI IC50(A549)/IC50(DM): 1509.19
[3]
  Stability in SIF, %: 97.2%

## C=CC(=O)Nc1cc(Nc2nccc(C(=O)c3ccccc3C(F)(F)F)n2)c(OC)cc1N(C)CCN(C)C [EGFR_3365, N-(2-((2-(dimethylamino)ethyl) (methyl)amino)-4-methoxy-5-((4-(2-(trifluoromethyl)benzoyl)pyrimidin-2-yl)amino)phenyl)acrylamide]
[1]
  Papp A→B at 2 h, 10 µM: 5.28 ×10⁻⁶ cm/s
  efflux ratio at 2 h, 10 µM: 1.29
[2]; [4]
  IC50: 60.1 nM
[2]; [5]
  IC50: 60.1 nM
[2]
  SI IC50(A549)/IC50(DM): >166**
[3]
  Stability in SIF, %: 100.0%

## C=CC(=O)Nc1cc(Nc2nccc(C(=O)c3ccc(N4CCCC4)cc3)n2)c(OC)cc1N(C)CCN(C)C [EGFR_3365_63, N-(2-((2-(dimethylamino)ethyl)(methyl)amino)-4-methoxy-5-((4-(4-(pyrrolidin-1-yl)benzoyl)pyrimidin-2-yl)amino)phenyl)acrylamide]
[1]
  Papp A→B at 2 h, 10 µM: 4.9 ×10⁻⁶ cm/s
  efflux ratio at 2 h, 10 µM: 1
[2]; [4]
  IC50: 2 nM
[2]; [5]
  IC50: 5.79 nM
[2]
  SI IC50(A549)/IC50(DM): 5383
[3]
  Stability in SIF, %: 100.0%

## C=CC(=O)Nc1cc(Nc2nccc(C(=O)c3ccc(F)cc3)n2)c(OC)cc1N(C)CCN(C)C [EGFR_3365_10, N-(2-((2-(dimethylamino)ethyl)(methyl)amino)-5-((4-(4-fluorobenzoyl)pyrimidin-2-yl)amino)-4-methoxyphenyl) acrylamide]
[1]
  Papp A→B at 2 h, 10 µM: 2.88 ×10⁻⁶ cm/s
  efflux ratio at 2 h, 10 µM: 0.58
[2]; [4]
  IC50: 211 nM
[2]; [5]
  IC50: 211 nM
[2]
  SI IC50(A549)/IC50(DM): 62.70
[3]
  Stability in SIF, %: 100.0%

## C=CC(=O)Nc1cc(Nc2nccc(C(=O)c3ccccc3Br)n2)c(OC)cc1N(C)CCN(C)C [EGFR_3365_12, N-(5-((4-(2-bromobenzoyl)pyrimidin-2-yl)amino)-2-((2-(dimethylamino)ethyl) (methyl)amino)-4-methoxyphenyl)acrylamide]
[1]
  Papp A→B at 2 h, 10 µM: 1.94 ×10⁻⁶ cm/s
  efflux ratio at 2 h, 10 µM: 0.98
[2]; [4]
  IC50: 21.5 nM
[2]; [5]
  IC50: 21.5 nM
[2]
  SI IC50(A549)/IC50(DM): 716.20
[3]
  Stability in SIF, %: 100.0%

## C=CC(=O)Nc1cc(Nc2cc(C(=O)c3ccc(N(C)C)cc3)ccn2)c(OC)cc1N(C)CCN(C)C.O=C(O)C(F)(F)F [EGFR_3365_4, N-(5-((4-(4-(dimethylamino)benzoyl)pyridin-2-yl)amino)-2-((2-(dimethylamino)ethyl) (methyl)amino)-4-methoxyphenyl)acrylamide 2,2,2-trifluoroacetate]
[1]
  Papp A→B at 2 h, 10 µM: 2.86 ×10⁻⁶ cm/s
  efflux ratio at 2 h, 10 µM: 2
[2]; [4]
  IC50: 35.3 nM
[2]; [5]
  IC50: 35.3 nM
[2]
  SI IC50(A549)/IC50(DM): 152.17
[3]
  Stability in SIF, %: 100.0%

## C=CC(=O)Nc1cc(Nc2cc(C(=O)c3ccc(OCC)cc3)ccn2)c(OC)cc1N(C)CCN(C)C [EGFR_3365_52, N-(2-((2-(dimethylamino)ethyl)(methyl)amino)-5-((4-(4-ethoxybenzoyl)pyridin-2-yl)amino)-4-methoxyphenyl) acrylamide]
[1]
  Papp A→B at 2 h, 10 µM: 3 ×10⁻⁶ cm/s
  efflux ratio at 2 h, 10 µM: 1.2
[2]; [4]
  IC50: 66.1 nM
[2]; [5]
  IC50: 66.1 nM
[2]
  SI IC50(A549)/IC50(DM): 164
[3]
  Stability in SIF, %: 100.0%
